Data set [1] relates to DUSP6 mRNA (MAPK pathway signaling) in HCC4006-OsiR cells. The experiment in a line: In vitro pharmacodynamic assay, Taqman qRT-PCR of DUSP6 in HCC4006-OsiR cells. The format is cell-based, human. The note with it: osimertinib 100 nM, formula (10b) 3 μM, 4-hour, 48-hour, 7-day treatment. For orientation: Real-time PCR tracks product formation cycle by cycle.
Method: In vitro pharmacodynamic assay—Taqman qRT-PCR assay. The HCC4006-OsiR cells were plated in 6-well plates (Corning #353046) in 2 mL media and allowed to adhere overnight. […] Four hours later, 4-hour samples were harvested by removing media and lysing cells in each well with 350 μL RLT lysis buffer (Qiagen #79216) with 1% 2-mercaptoethanol. Samples were processed either right way or stored at −20° C. until further analysis. On day 3 and day 8, 48-hour samples and 7-day samples were harvested in the same way. Cells harvested at these two timepoints were switched to fresh media containing compounds 24 hours before sample harvesting.
RNA was extracted from lysates using RNeasy mini RNA isolation kit (Qiagen #74106). Isolated RNA was quantified using Nanodrop 8000 (Thermo Fisher). cDNA was synthesized using high capacity cDNA reverse transcription kit (Thermo Fisher #4368813) with 1 μg total RNA per reaction on a BioRad Tetrad2 thermal cycler (25° C. for 10 min, 37° C. for 120 min, 85° C. for 5 min then hold at 4° C.). The cDNA was further diluted 1:10 using ddH2O. Quantitative real-time PCR was conducted using the following Taqman probes and Taqman universal master mix II without UNG (Thermo Fisher #4440040) on QuantStudio 6 in 384-well format (Thermo Fisher), following vendor's protocols. Each well contains a target probe of interest conjugated to FAM dye (DUSP6, Thermo Fisher Assay ID Hs01044001_m1), and an endogenous control conjugated to VIC dye (human RPLPO, Thermo Fisher #4326314E). Each cDNA was run in three technical replicates.
The ΔΔCt method was used to analyze the qRT-PCR data. […] To calculate fold change, the relative mRNA levels of each sample were normalized to that in DMSO treated samples (fold change for DMSO treated samples was set at “1”). Calculations were done in Microsoft Excel and the graphs were generated in GraphPad Prism 8.0.
The subject of data set [2] is HCC827 subcutaneous tumors. The experiment in a line: HCC827 subcutaneous xenograft, tumor volume. Format: in vivo, mouse. On the procedure:
(§1) Cell lines. The HCC827 cell line was purchased from ATCC. […] The cells were cultured in RPMI-1640 medium (Sigma #RO883)+10% FBS (Sigma #F7524)+2 mM L-glutamine (Sigma #59202C) in 37° C. tissue culture incubator with 5% CO2.
(§2) Test animals. Female athymic nude mice (Envigo UK, Hsd: Athymic Nude-Foxn1nu) were utilized in this experiment. Animals were between 5 and 6 weeks of age at time of xenograft implantation. Animal welfare complies with the UK Animals Scientific Procedures Act 1986 (ASPA) in line with Directive 2010/63/EU of the European Parliament and the Council of 22 Sep. 2010 on the protection of animals used for scientific purposes. All experimental data management and reporting procedures were in strict accordance with applicable Crown Bioscience UK Guidelines and Standard Operating Procedures.
(§3) In vivo modeling, treatment and data analysis. For xenograft studies with the HCC827 and HCC827-ER1 cells, 5 million cells in 200 μL Matrigel (Corning #354234) were injected subcutaneously into the left flank of 5˜6 weeks old female athymic nude mice (Envigo UK). […] Dosing started ˜3 weeks post the subcutaneous implantation of the tumor cells. Dosing volume was 5 mL/kg for each compound, and was adjusted based on individual mouse weight from the daily measurements. Tumor volume was measured twice a week.
(§4) Data were analyzed using Microsoft Excel and GraphPad Prism 8.0. Day 0 was the day before treatment started. Body weight change was calculated based on the following formulas.

Data set [3] relates to HCC827-ER1 subcutaneous tumors. The experiment in a line: HCC827-ER1 subcutaneous xenograft, tumor volume. The note with it: for Number of regressions: regressions/animals remaining. The format is in vivo, mouse. On the procedure:
as §1, §2, §3, §4

Data set [4] can be described thus: Plasma exposure by LC-MS/MS in the HCC827 xenograft study. The following applies: for Formula (10b) Plasma concentration: 6-8 hours post the final dose of formula (10b) 100 mg/kg QD, mean ± SD. An excerpt: Blood collection for pharmacokinetic analysis. Blood from live animals for pharmacokinetic (PK) analyses was obtained via the lateral saphenous vein. The mouse was placed in a restraint tube and the hind leg immobilized in the extended position. Resting the foot of the animal on a solid surface, a sterile 25g needle (BD Microlance 3) was inserted into the saphenous vein on the top of the foot. The needle was removed and the blood collected using an EDTA coated capillary blood tube (Microvette CB 300 K2E) by capillary action to a volume of 100 μL. The tube was inverted several times to distribute the EDTA evenly and then centrifuged at 13,000 rpm, 4° C. (VWR Micro Star 17R) for 5 minutes to generate plasma. The supernatant (plasma) was carefully transferred to a 1.5 mL tube and stored at −80° C.
For each analysis, 25 μL of plasma sample was precipitated with 200 μL of acetonitrile containing imipramine (70 ng/mL) as an internal standard.
(§5) The detection conditions of the mass spectrometer were as follows: capillary voltage, 3 kv; cone voltage, 50 ev; collision energy, 25 ev; source temperature, 150° C.; desolvation temperature, 400° C.; desolvation gas flow, 1000 L/hr; cone gas glow, 0.15 mL/min. […] The injection volume was 5 μL. The LC mobile phase A was 0.1% acetic acidwater and B was 0.1% acetic acid-acetonitrile. […] The column temperature was 40° C. […] All data were processed using the MAssLynx v. 4.0 software.

Data set [5] in a line: Plasma concentration by LC-MS/MS in mice bearing HCC827-ER1 tumors (PK/PD study). The procedure: (§6) In vivo modeling, treatment and data analysis. […] Dosing started ˜3 weeks after the subcutaneous implantation of the tumor cells. Dosing volume was 5 mL/kg for each compound, and was adjusted based on individual mouse weight. Dosing and sample harvesting followed the schedule below. There was a 6-hour interval between the morning dose and the afternoon dose, and tumor/plasma samples were harvested at three timepoints during the 24-hour dosing cycle.
Blood collection for pharmacokinetic analysis. Blood from live animals for pharmacokinetic (PK) analyses was obtained via the lateral saphenous vein. The mouse was placed in a restraint tube and the hind leg immobilized in the extended position. Resting the foot of the animal on a solid surface, a sterile 25g needle (BD Microlance 3) was inserted into the saphenous vein on the top of the foot. The needle was removed and the blood collected using an EDTA coated capillary blood tube (Microvette CB 300 K2E) by capillary action to a volume of 100 μL.
The tube was inverted several times to distribute the EDTA evenly and then centrifuged at 13,000 rpm, 4° C. (VWR Micro Star 17R) for 5 minutes to generate plasma. The supernatant (plasma) was carefully transferred to a 1.5 mL tube and stored at −80° C.
as §5

Data set [6] relates to DUSP6 mRNA in HCC827-ER1 tumors. The experiment in a line: In vivo pharmacodynamic assay, Taqman qRT-PCR of DUSP6 in HCC827-ER1 xenograft tumors. Details: species or system mouse. On the procedure: as §6
The subject of data set [7] is MPAS-plus signature (MAPK pathway) in HCC827-ER1 tumors. The experiment in a line: RNA sequencing (QuantSeq), MPAS-plus signature in HCC827-ER1 xenograft tumors. The format is in vivo, mouse. The following applies: for effect on MPAS-plus signature: across timepoints. The procedure:
as §6

The nature of data set [8]: Body weight in the HCC827-ER1 xenograft study. The following applies: Day 15. The procedure: In vivo modeling, treatment and data analysis. […] Dosing started ˜3 weeks post the subcutaneous implantation of the tumor cells. Dosing volume was 5 mL/kg for each compound, and was adjusted based on individual mouse weight from the daily measurements. Tumor volume was measured twice a week.
as §4
BWi and BW0 are the body weight of an individual mouse on measurement day I and on day 0, respectively.

The mark [9] stands for this setting: HCC827 xenograft, formula (10b) 100 mg/kg QD, osimertinib 5 mg/kg QD, PO, 21 days.

The structures appear in SMILES notation. “Also recorded” adds a separate entry of the source. Where only a bound is given, the exact number is not on record here.

Regarding `Cc1c(N2CCC3(CC2)CO[C@@H](C)[C@H]3N)nc(C)n(-c2cccc(Cl)c2Cl)c1=O` (atropisomer, axis not shown; (Ra)) [Formula (10b), 6-((3S,4S)-4-amino-3-methyl-2-oxa-8-azaspiro[4.5]decan-8-yl)-3-(Ra)-(2,3-dichlorophenyl)-2,5-dimethylpyrimidin-4 (3H)-one], the “DUSP6 mRNA levels” value in data set [1] is “reduces the transcript levels of MAPK pathway signature gene DUSP6; also recorded: potently suppressed DUSP6 mRNA levels at all three timepoints tested”. Besides, the “tumor growth (tumor volume)” value in data set [2] (setting [9]) is recorded as “suppresses the growth of the HCC827 subcutaneous tumors; also recorded: tumor stasis”; in data set [3] (HCC827-ER1 xenograft, formula (10b) 100 mg/kg QD, osimertinib 5 mg/kg QD, PO, 21 days), “suppresses the growth of the HCC827-ER1 tumors; also recorded: tumor stasis”. In data set [3] (Day 15, HCC827-ER1 xenograft, formula (10b) 100 mg/kg QD, osimertinib 5 mg/kg QD), this compound registered a TGI of 84%. Also, the Number of regressions in data set [3] (Day 15, HCC827-ER1 xenograft) is given as 0/4. Moreover, the “Formula (10b) Plasma concentration” value in data set [4] (HCC827 xenograft model) was 14.1 ± 5.6 µM; in data set [4] (HCC827 xenograft model, listed as formula (10b)), 14.1 µM; in data set [5] (6 hours and 8 hours after dosing, 100 mg/kg, monotherapy and in combination with osimertinib) it was 30 to 50 µM. Besides, the “10(b) plasma concentration” value in data set [5] (24 hr post (10b) (18 hr post osimertinib), formula (10b) 100 mg/kg PO, mean ± SD) is 1.34 ± 0.24 µM. Moreover, in data set [5] (female, athymic nude, mouse, plasma, oral, 100 mg/kg, 10(b) plasma concentration, 6 hr post (10b) (24 hr post osimertinib), formula (10b) 100 mg/kg PO, mean ± SD), the concentration at 6 h worked out at 47400 ± 5200 nM. The compound also yielded a concentration at 8 h in data set [5] (female, athymic nude, mouse, plasma, oral, 100 mg/kg, 10(b) plasma concentration, 8 hr post (10b) (2 hr post osimertinib), formula (10b) 100 mg/kg PO, mean ± SD) of 35800 ± 9100 nM. For the same compound, the concentration at 24 h in data set [5] (female, athymic nude, mouse, plasma, oral, 100 mg/kg, 10(b) plasma concentration, 24 hr post (10b) (18 hr post osimertinib), formula (10b) 100 mg/kg PO, mean ± SD) was around 1000 nM. The “suppression of DUSP6 mRNA levels” value in data set [6] (6-hour and 8-hour after formula (10b) dosing, 100 mg/kg) is “over 90%”; in data set [6] (across the three timepoints (best suppression), osimertinib 5 mg/kg, formula (10b) 100 mg/kg), “suppresses DUSP6 mRNA levels”. Besides, the “mRNA levels of the MPAS-plus genes” value in data set [7] (6-hour and 8-hour after formula (10b) administration) is recorded as “potently suppressed the mRNA levels of the MPAS-plus genes”. Also, the “effect on MPAS-plus signature” value in data set [7] is on record as “suppresses the MPAS-plus signature”. Moreover, in data set [8], the “Mean body weight change” value was “+6.3%”.

On to `C=CC(=O)Nc1cc(Nc2nccc(-c3cn(C)c4ccccc34)n2)c(OC)cc1N(C)CCN(C)C` [Osimertinib], for which the “DUSP6 mRNA levels” value in data set [1] is on record as “did not suppress DUSP6 mRNA levels”. In addition, the “tumor growth (tumor volume)” value is “tumor stasis” in data set [2] (setting [9]); “robust tumor regression” in data set [2] (mouse, in vivo); “continued to grow during the treatment period” in data set [3] (mouse, in vivo). Further, the Number of regressions in data set [3] (Day 15, HCC827-ER1 xenograft) was 0/4. Further, the TGI in data set [3] (mouse, in vivo) turned out to be 64%. The “osimertinib plasma concentration” value in data set [4] (24 hours post the final dose of osimertinib 5 mg/kg QD, HCC827 xenograft model, quantitation limit 2 nM) is “BQL”; in data set [5] (2 hr post osimertinib (8 hr post (10b)), osimertinib 5 mg/kg PO, mean ± SD) it was 681 ± 277 nM; in data set [5] (18 hr post osimertinib (24 hr post (10b)), osimertinib 5 mg/kg PO, mean ± SD) it was “low nanomolar range”; in data set [5] (24 hr post osimertinib (6 hr post (10b)), osimertinib 5 mg/kg PO, quantitation limit 2 nM), “BQL”. For the same compound, the concentration at 24 h in data set [4] (athymic nude, mouse, in vivo, 5 mg/kg) is below 2 nM; in data set [5] (female, athymic nude, mouse, in vivo, 5 mg/kg, osimertinib plasma concentration, 24 hr post osimertinib (6 hr post (10b)), osimertinib 5 mg/kg PO, quantitation limit 2 nM), below 2 nM. The compound further displayed a concentration at 2 h in data set [5] (female, athymic nude, mouse, in vivo, 5 mg/kg, osimertinib plasma concentration, 2 hr post osimertinib (8 hr post (10b)), osimertinib 5 mg/kg PO, mean ± SD) of around 700 nM. In data set [5] (female, athymic nude, mouse, in vivo, 5 mg/kg, osimertinib plasma concentration, 18 hr post osimertinib (24 hr post (10b)), osimertinib 5 mg/kg PO, mean ± SD), this compound returned a concentration at 18 h of 2.1 ± 0.14 nM. In data set [7], the “effect on MPAS-plus signature” value is given as “little effect on the MPAS-plus signature”. In addition, in data set [8], the “Mean body weight change” value is “+1.0%”.

As usually defined, the TGI is the reduction of tumour growth relative to the control group. High values mean much slowing of growth, low ones little slowing of growth.
